Data as given in patent US11040028B2, “Penicinotam derivative, preparation method and use thereof” (OCEAN UNIVERSITY OF CHINA, priority 2017, dated 2021).
Like-named read-outs stand apart in the source and are kept apart here.

Key:
Assay type in all cases: cell-based
BHK-21 cells = assay: Anti-fibrosis activity test: inhibition of BHK-21 cell proliferation (CCK-8); conditions: Mesocricetus auratus, BHK-21, 48 h
In short: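 BHK-21 cells seeded at 2×10^4 cells/mL, allowed to adhere 24 h at 37° C, 5% CO2, then exposed to compounds at graded concentrations in triplicate for 48 h. CCK-8 added for 2 h and absorbance read at 450 nm; inhibition rate taken as (1−Ai/Ao)×100% and IC50 fitted.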

[1] = tested on: human lung fibroblasts HFL1; assay: Anti-fibrosis activity test: inhibition of proliferation of human lung fibroblasts HFL1 (CCK-8); conditions: Homo sapiens, HFL1, 48 h
In short: (§1)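 A CCK-8 proliferation assay was run: cells at 2×10^4 cells/mL, adherent for 24 h, then incubated 48 h at 37° C with compound dilutions. A450 was recorded 2 h after CCK-8 addition and converted to percent inhibition versus blank for IC50 determination.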

[2] = tested on: human hepatic stellate cells LX-2; assay: Anti-fibrosis activity test: inhibition of proliferation of human hepatic stellate cells LX-2 (CCK-8); conditions: Homo sapiens, 48 h
In short: as §1

[3] = tested on: human fibrosarcoma cells HT-1080; assay: Anti-fibrosis activity test: inhibition of proliferation of human fibrosarcoma cells HT-1080 (CCK-8); conditions: Homo sapiens, HT-1080, 48 h
In short: as §1

[4] = tested on: human dermal fibroblasts CCC-ESF-1; assay: Anti-fibrosis activity test: inhibition of proliferation of human dermal fibroblasts CCC-ESF-1 (CCK-8); conditions: Fibroblast
In short: as §1

[5] = tested on: human embryonic lung fibroblast IMR-90; assay: Anti-fibrosis activity test: inhibition of proliferation of human embryonic lung fibroblast IMR-90 (CCK-8)
In short: as §1

[6] = tested on: cardiac fibroblast RAT-iCell-C002; assay: Anti-fibrosis activity test: inhibition of proliferation of cardiac fibroblast RAT-iCell-C002 (CCK-8); conditions: Cardiac fibroblast, 48 h
In short: as §1

[7] = tested on: mouse macrophages (RAW264.7); assay: Lipopolysaccharide-induced NO secretion in macrophages (Griess); conditions: RAW264.7, LPS 1 μg/ml, a/b isomers given as first/second symbol, read-out: IC50 (μM), inhibition of lipopolysaccharide-induced NO secretion in macrophages
In short: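 Absorbance at 548 nm after Griess reagent addition to culture supernatant gave NO content; inhibition rate was derived relative to blank control. Cells were mouse RAW264.7 macrophages exposed to compounds and 1 μg/ml LPS for 24 hours.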

[8] = Homo sapiens, CCC-ESF-1 cells, 48 h, CCK-8
[9] = Homo sapiens, IMR-90 cells, 48 h, CCK-8
[10] = CCK-8, 48 hours after administration
[11] = human lung fibroblasts HFL1, CCK-8, 48 hours
[12] = human hepatic stellate cells LX-2, CCK-8, 48 hours
[13] = human fibrosarcoma cells HT-1080, CCK-8, 48 hours
[14] = human dermal fibroblasts CCC-ESF-1, CCK-8, 48 hours
[15] = human embryonic lung fibroblast IMR-90, CCK-8, 48 hours
[16] = cardiac fibroblast RAT-iCell-C002, CCK-8, 48 hours

SMILES	IC50 (BHK-21 cells; 48 h, CCK-8)	IC50 ([1]; HFL1 cells, 48 h, CCK-8)	IC50 ([2]; LX-2, 48 h, LX-2 cells, CCK-8)	IC50 ([3]; HT-1080 cells, 48 h, CCK-8)	IC50 [4, 8]	IC50 [5, 9]	IC50 ([6]; RAT-iCell-C002 cells, CCK-8)	IC50 ([7]; Mus musculus, RAW264.7, 24 h)	IC50 (BHK-21 cells; [10])	IC50 [1, 11]	IC50 [2, 12]	IC50 [3, 13]	IC50 [4, 14]	IC50 [5, 15]	IC50 [6, 16]	IC50 ([7]; 24 hours)
Cc1cccc2c(O)c3c(nc12)C(=O)n1cccc1-3 [Compound 779b, 11-hydroxy-7-methyl-5H-pyrrolizino[2,1-b]quinolin-5-one]	0.05 to 5 mM	0.05 to 5 mM	0.05 to 5 mM	0.05 to 5 mM	0.05 to 5 mM	0.05 to 5 mM	0.05 to 5 mM	1 to 10 µM								
Cc1ccc2nc3c(c(O)c2c1)-c1cccn1C3=O [Compound 777b, 11-hydroxy-9-methyl-5H-pyrrolizino[2,1-b]quinolin-5-one]	0.05 to 5 mM	0.05 to 5 mM	0.05 to 5 mM	0.05 to 5 mM	0.05 to 5 mM	0.05 to 5 mM	0.05 to 5 mM	1 to 10 µM								
N#Cc1ccc2nc3c(c(Oc4ccc(F)cc4)c2c1)C(=O)n1cccc1-3 [Compound 199b, 9-(4-fluorophenoxy)-10-oxo-10H-pyrrolizino[1,2-b]quinoline-7-carbonitrile]								1 to 10 µM	0.05 to 5 mM	0.05 to 5 mM	0.05 to 5 mM	0.05 to 5 mM	0.05 to 5 mM	0.05 to 5 mM	0.05 to 5 mM	
O=C1c2c(n(Cc3ccc(Cl)cc3)c3c(C(F)(F)F)c(N4CCNCC4)ccc3c2=O)-c2cccn21 [Compound 483a, 4-(4-Chlorobenzyl)-6-(piperazin-1-yl)-5-(trifluoromethyl)-9H-pyrrolizino[1,2-b]quinoline-9,10(4H)-dione]									< 0.05 mM	0.05 to 5 mM	0.05 to 5 mM	0.05 to 5 mM	0.05 to 5 mM	0.05 to 5 mM	0.05 to 5 mM	10 to 50 µM
O=C1c2c(n(Cc3ccc(Cl)cc3)c3c(F)c(N4CCNCC4)ccc3c2=O)-c2cccn21 [Compound 484a, 4-(4-Chlorobenzyl)-5-fluoro-6-(piperazin-1-yl)-9H-pyrrolizino[1,2-b]quinoline-9,10(4H)-dione]								10 to 50 µM	0.05 to 5 mM	0.05 to 5 mM	0.05 to 5 mM	0.05 to 5 mM	0.05 to 5 mM	0.05 to 5 mM	0.05 to 5 mM	
O=C1c2c(nc3c(Cl)cccc3c2OCc2ccccc2Cl)-c2cccn21 [Compound 461b, 5-chloro-9-((2-chlorobenzyl)oxy)-10H-pyrrolizino[1,2-b]quinolin-10-one]								1 to 10 µM	0.05 to 5 mM	0.05 to 5 mM	0.05 to 5 mM	0.05 to 5 mM	0.05 to 5 mM	0.05 to 5 mM	0.05 to 5 mM	
O=C1c2nc3ccccc3c(OCCN3CCOCC3)c2-c2cccn21 [Compound 785b, 11-(2-morpholinoethoxy)-5H-pyrrolizino[2,1-b]quinolin-5-one]	0.05 to 5 mM	0.05 to 5 mM	0.05 to 5 mM	0.05 to 5 mM	0.05 to 5 mM	0.05 to 5 mM	0.05 to 5 mM	1 to 10 µM								
O=C1c2c(nc3c(Cl)cccc3c2OCc2ccccc2F)-c2cccn21 [Compound 460b, 5-chloro-9-((2-fluorobenzyl)oxy)-10H-pyrrolizino[1,2-b]quinolin-10-one]								10 to 50 µM	0.05 to 5 mM	0.05 to 5 mM	0.05 to 5 mM	0.05 to 5 mM	0.05 to 5 mM	0.05 to 5 mM	0.05 to 5 mM	
O=C1c2c([nH]c3cc(N4CCNCC4)c(C(F)(F)F)cc3c2=O)-c2cccn21 [Compound 397a, 6-(Piperazin-1-yl)-7-(trifluoromethyl)-9H-pyrrolizino[1,2-b]quinoline-9,10(4H)-dione]								0.1 to 1 µM	0.05 to 5 mM	0.05 to 5 mM	0.05 to 5 mM	0.05 to 5 mM	0.05 to 5 mM	0.05 to 5 mM	0.05 to 5 mM	
O=C1c2c(n(Cc3ccccc3Cl)c3c(Cl)cccc3c2=O)-c2cccn21 [Compound 461a, 5-Chloro-4-(2-chlorobenzyl)-9H-pyrrolizino[1,2-b]quinoline-9,10(4H)-dione]								1 to 10 µM	< 0.05 mM	0.05 to 5 mM	< 0.05 mM	0.05 to 5 mM	0.05 to 5 mM	0.05 to 5 mM	0.05 to 5 mM	
